# Active and inactive are the calls of the source.
# Columns and labels:
# [1] = NIH-3T3 fibroblast cytotoxicity, dose response, cytotoxicity control, cell-based, fluorescence, Alamar Blue, secondary assay (AID 2327); assay type: functional;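 further: NIH-3T3 mouse fibroblasts cultured with fluconazole at 8 µg/mL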
# [2] = C. albicans growth with fluconazole, confirmation, fluorescence, retest (AID 2467); assay type: functional, cell-based
# [3] = target: T1, Serine/threonine-protein phosphatase (Candida dubliniensis (strain CD36 / CBS 7987 / NCPF 3949 / NRRLY-17841) (Yeast), UniProt B9W6M3); experiment: calcineurin pathway inhibitors in yeast reporter, dose response, S. cerevisiae, CDRE-lacZ, luminescence, secondary (AID 2388); assay type: functional, cell-based;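 further: yeast reporter cells carrying a calcineurin-responsive lacZ construct stimulated with calcium chloride; luminescent beta-galactosidase reporter signal in whole cells rather than isolated phosphatase activity; potency for inhibition where a drop in reporter signal means calcineurin blockade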
# T1 sequence (B9W6M3 whole entry): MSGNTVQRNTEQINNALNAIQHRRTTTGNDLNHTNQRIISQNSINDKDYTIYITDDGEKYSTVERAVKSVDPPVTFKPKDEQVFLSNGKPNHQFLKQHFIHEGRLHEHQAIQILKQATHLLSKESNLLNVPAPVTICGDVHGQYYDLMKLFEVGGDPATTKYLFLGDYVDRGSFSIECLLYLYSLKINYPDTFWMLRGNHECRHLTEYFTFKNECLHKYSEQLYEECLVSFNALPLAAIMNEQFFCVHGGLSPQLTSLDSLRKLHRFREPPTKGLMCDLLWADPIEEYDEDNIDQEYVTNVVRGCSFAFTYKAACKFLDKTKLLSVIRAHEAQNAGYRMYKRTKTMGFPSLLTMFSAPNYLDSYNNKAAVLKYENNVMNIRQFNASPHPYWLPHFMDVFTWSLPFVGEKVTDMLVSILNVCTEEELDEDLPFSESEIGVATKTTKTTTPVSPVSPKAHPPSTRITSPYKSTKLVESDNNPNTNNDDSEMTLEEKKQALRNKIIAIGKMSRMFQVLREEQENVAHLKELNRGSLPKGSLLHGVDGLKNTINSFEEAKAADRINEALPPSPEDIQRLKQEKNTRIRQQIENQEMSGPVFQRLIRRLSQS
# [4] = target: ATP-dependent molecular chaperone HSP82 (Candida albicans (strain WO-1) (Yeast), UniProt C4YTQ8); experiment: loss of DOC-induced GRE-beta-galactosidase reporter signal, dose response, Hsp90 inhibitor project, S. cerevisiae, luminescence (AID 2400); assay type: functional, cell-based;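 further: beta-galactosidase luminescence from glucocorticoid response element reporter as proxy for Hsp90 function; inhibitor potency where signal loss means Hsp90 inhibition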
# Chain of ATP-dependent molecular chaperone HSP82 (C4YTQ8 whole entry): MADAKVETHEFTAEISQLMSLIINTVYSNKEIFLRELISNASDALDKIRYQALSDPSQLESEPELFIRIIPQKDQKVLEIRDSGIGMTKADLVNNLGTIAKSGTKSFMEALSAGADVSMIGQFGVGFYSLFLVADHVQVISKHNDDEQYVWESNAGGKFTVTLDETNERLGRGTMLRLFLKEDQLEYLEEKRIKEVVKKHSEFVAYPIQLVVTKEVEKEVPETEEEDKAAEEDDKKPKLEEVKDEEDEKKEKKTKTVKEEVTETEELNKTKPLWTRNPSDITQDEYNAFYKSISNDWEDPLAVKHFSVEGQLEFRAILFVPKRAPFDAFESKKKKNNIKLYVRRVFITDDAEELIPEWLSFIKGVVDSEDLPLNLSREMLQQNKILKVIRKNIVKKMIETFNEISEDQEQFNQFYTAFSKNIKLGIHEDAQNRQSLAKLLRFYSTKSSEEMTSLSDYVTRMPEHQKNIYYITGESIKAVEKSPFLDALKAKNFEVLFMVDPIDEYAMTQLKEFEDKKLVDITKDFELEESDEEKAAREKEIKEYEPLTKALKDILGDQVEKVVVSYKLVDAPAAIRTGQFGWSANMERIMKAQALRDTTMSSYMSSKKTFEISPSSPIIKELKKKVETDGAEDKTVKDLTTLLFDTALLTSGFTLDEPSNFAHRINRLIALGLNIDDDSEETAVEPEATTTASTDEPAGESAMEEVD
# Leucine aminopeptidase = target: T2, Leucine aminopeptidase (Plasmodium falciparum 3D7, UniProt Q8IL11); experiment: P. falciparum M17LAP inhibitors, primary screen, biochemical, fluorogenic H-Leu-NHMec substrate, 1536-well (AID 1619); assay type: functional
# T2 sequence (Q8IL11 whole entry): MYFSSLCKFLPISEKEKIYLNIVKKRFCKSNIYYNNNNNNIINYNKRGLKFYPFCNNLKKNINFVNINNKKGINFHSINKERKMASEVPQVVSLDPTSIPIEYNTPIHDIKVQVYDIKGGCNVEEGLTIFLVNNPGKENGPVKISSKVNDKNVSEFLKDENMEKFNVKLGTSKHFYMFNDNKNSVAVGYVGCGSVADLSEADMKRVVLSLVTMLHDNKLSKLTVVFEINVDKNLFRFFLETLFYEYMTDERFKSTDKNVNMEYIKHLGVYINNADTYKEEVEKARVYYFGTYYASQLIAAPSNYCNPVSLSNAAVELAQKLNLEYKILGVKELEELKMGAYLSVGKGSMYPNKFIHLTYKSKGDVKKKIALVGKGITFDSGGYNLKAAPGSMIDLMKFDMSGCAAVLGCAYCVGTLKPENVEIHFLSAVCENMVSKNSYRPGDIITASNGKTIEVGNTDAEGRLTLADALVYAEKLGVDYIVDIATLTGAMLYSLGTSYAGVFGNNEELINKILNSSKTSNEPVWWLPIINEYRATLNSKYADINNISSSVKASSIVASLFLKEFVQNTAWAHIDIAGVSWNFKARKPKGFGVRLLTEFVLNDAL
# [5] = target: T3, Heat shock factor protein 1 (Mus musculus, UniProt P38532); experiment: inhibition of MG132-induced HSE-luciferase signal, confirmation, cell-based, NIH3T3, luminescence, dose retest (AID 2382); assay type: functional;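 further: NIH3T3 fibroblasts with HSF1-driven luciferase reporter stressed by proteasome inhibitor MG132; luminescence from HSF1-driven luciferase expression after 8 hours of MG132 stress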
# T3 sequence (P38532 whole entry): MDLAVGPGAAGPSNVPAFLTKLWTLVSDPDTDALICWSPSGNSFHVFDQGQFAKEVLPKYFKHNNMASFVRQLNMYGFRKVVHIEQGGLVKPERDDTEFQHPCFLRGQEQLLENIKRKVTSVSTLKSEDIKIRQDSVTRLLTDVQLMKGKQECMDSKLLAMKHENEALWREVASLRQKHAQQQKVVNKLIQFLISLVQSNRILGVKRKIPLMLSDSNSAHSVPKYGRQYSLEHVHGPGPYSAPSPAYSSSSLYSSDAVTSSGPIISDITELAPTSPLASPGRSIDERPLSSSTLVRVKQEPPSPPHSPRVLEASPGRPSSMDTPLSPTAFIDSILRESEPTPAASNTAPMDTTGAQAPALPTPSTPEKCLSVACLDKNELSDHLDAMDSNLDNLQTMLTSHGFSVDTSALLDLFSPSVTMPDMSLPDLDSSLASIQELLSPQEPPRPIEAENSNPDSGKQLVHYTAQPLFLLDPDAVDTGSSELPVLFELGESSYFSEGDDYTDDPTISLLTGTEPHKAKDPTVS
# [6] = target: T4, Microphthalmia-associated transcription factor (Homo sapiens, UniProt O75030); experiment: TRPM1 promoter luciferase signal decrease, dose response, MITF inhibitor project, cell-based, SK-MEL-5, cherry-picked, set 3 (AID 493073); assay type: functional
# T4 sequence (O75030 whole entry): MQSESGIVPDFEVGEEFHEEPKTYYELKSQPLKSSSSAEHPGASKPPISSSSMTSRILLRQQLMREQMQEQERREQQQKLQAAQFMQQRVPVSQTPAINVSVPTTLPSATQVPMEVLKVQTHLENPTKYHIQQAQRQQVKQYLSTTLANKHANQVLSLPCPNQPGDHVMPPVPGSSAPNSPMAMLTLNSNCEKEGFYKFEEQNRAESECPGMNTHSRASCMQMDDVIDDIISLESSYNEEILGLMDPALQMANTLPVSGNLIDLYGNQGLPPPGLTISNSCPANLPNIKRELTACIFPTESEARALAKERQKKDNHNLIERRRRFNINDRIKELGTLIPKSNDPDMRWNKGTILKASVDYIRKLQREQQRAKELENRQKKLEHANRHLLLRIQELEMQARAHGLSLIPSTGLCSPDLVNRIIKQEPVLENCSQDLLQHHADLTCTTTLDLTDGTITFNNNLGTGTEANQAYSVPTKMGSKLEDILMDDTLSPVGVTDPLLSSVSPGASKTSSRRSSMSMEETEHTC
# [7] = target: T5, Luciferin 4-monooxygenase (Photuris pensylvanica, UniProt Q27757); experiment: firefly luciferase enzyme inhibitors, dose response, counter-screen for HSF-1 reporter inhibitor project, biochemical, Cell Titer Glo, luminescence, cherry-picks (AID 588847)
# T5 sequence (Q27757 whole entry): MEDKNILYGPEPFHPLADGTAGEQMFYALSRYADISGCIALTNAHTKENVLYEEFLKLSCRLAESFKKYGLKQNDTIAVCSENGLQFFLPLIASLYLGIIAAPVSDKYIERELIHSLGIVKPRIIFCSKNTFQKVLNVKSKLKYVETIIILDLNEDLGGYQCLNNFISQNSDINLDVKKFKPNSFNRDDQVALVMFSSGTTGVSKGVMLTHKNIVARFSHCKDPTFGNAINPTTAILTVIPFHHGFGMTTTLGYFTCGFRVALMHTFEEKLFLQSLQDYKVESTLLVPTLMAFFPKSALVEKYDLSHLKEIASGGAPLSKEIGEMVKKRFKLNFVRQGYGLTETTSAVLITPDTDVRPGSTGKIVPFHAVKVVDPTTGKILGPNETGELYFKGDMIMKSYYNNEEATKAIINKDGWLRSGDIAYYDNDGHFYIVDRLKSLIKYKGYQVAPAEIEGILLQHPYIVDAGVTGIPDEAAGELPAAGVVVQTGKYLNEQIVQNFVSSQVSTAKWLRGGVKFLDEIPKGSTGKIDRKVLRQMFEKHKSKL
# [8] = target: T6, Long-chain-fatty-acid--AMP ligase FadD28 (Mycobacterium tuberculosis, UniProt P9WQ59); experiment: Fluorescence polarization aasay to screen for inhibitors that compete for the binding of FadD28 to a bisubstrate Measured in Biochemical System Using Plate Reader - 2147-01_Inhibitor_Dose_CherryPick_Activity.; assay type: functional, Mycobacterium tuberculosis H37Rv
# T6 sequence (P9WQ59 whole entry): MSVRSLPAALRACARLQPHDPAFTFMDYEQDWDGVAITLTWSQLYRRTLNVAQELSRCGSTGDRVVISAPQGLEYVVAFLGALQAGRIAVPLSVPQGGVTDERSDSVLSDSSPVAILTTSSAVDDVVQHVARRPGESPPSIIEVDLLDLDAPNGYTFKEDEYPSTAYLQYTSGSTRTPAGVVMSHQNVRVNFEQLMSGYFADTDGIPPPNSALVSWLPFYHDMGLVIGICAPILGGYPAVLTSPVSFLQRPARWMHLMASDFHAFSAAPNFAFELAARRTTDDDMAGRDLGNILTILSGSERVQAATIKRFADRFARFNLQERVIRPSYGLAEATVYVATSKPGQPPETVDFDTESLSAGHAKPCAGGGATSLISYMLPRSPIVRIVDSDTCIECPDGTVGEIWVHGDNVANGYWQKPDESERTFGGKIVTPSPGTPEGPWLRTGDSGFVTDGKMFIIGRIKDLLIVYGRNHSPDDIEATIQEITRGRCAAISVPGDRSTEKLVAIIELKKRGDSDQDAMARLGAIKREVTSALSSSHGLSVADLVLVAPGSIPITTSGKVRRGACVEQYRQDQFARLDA
# [9] = target: T7, Rac GTPase-activating protein 1 (Homo sapiens, UniProt Q9H0H5); experiment: MgcRacGAP GTPase-activating activity inhibitors, confirmation, biochemical, ADP Hunter fluorescence, primary and confirmatory (AID 624330); assay type: functional
# T7 sequence (Q9H0H5 whole entry): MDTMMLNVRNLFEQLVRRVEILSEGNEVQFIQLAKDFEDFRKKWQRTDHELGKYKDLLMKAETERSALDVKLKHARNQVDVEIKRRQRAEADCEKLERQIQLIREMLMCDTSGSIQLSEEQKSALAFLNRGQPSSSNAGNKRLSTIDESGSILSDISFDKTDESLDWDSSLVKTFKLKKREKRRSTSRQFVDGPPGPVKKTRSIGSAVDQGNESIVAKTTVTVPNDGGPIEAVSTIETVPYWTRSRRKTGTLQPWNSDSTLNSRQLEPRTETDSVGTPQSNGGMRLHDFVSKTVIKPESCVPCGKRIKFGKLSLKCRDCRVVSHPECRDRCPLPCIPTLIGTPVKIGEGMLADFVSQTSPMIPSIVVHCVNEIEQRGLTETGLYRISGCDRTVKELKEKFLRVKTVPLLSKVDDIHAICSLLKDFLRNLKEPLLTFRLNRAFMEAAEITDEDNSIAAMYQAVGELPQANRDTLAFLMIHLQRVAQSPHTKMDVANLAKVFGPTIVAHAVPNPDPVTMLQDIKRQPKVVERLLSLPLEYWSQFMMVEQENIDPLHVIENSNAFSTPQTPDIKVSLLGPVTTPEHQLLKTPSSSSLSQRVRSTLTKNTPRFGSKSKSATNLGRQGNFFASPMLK
SMILES,EC50 [1],EC50 [2],EC50 [3],EC50 [4],IC50 (Leucine aminopeptidase),EC50 [5],AC50 [6],AC50 [7],AC50 [8],IC50 [9]
N=C(Cc1ccccc1)NOC(=O)c1cccc2ccccc12,19.3 µM (active),0.717 µM (active),> 180 µM (inactive),14 µM (active),–,–,–,–,–,–
Cc1ccc(/C=N/Nc2ccc(C(=O)O)cc2)s1,–,–,–,–,20.4 µM (active),< 0.16 µM (active),3.3 µM (active),0.721 µM (active),37.8 µM (active),89.2 µM (active)

# Reference: ChEMBL document CHEMBL1201862, “PubChem BioAssay data set” (2004)
